Assay results as given in publication PMC8708875 (Pharmaceutics, 2021).

Tests used:
in vitro = in vitro ADME, mouse; details: WT mice liver or kidney crude extracts; fragments sequenced by mass spectrometry after HPLC; data not shown
Procedure: Peptide hydrolyses were analyzed by reverse phase liquid chromatography (HPLC) using a C18 µBond-pak column (4.6 × 250 mm; Millipore Corp.) with a linear gradient of 5–65% acetonitrile in 0.1% TFA for 20 min at a flow rate of 1 mL/min, and absorbance monitored at a wavelength of 214 nm, as previously described. Cleaved peptide bonds were identified by mass spectrometry sequencing after isolating the cleavage fragments manually after HPLC, as previously described (data not shown). Control enzyme assays were conducted using bradykinin ([…]; 50 µM) as a standard substrate.

C57BL/6N (WT) mice = type: in vivo, mouse; details: WT mice fasted 12 h, glucose 2 g/kg ip at time zero
Procedure: In vivo experiments were conducted with male C57BL/6N (WT) mice 12–16 weeks-old (University of São Paulo Medical School Animal Facility, SP, Brazil). Mice were maintained in individual ventilated cages (Amresco, SP, Brazil), under standardized conditions with an artificial 12 h dark–light cycle, with free access to standard chow (Nuvital Nutrientes S.A., Colombo, PR, Brazil) and drinking water ad libitum. The number of animals used was the minimum necessary to obtain statistically significant results and they were maintained and used in accordance with the guidelines of the National Council for Control of Animal Experiments (CONCEA), following international norms of animal care and maintenance. Thus, we hereby state that all experimental protocols were previously approved by University of São Paulo Ethic committee councils from Biomedical Science Institute (approval number for mice experimentation ICB/USP 22/2017).
WT mice were fasted for 12 h and blood samples were taken before and at 15, 30, 60, 90, and 120 min after the intraperitoneal (ip) injection of 2 g/kg glucose. Glycemia was measured using a glucometer (Accu-Check Performa, ROCHE, São Paulo, Brazil). Peptides were evaluated to affect glucose uptake either after ip or oral (by gavage) administration. After 20 min glucose was administrated (blood glucose levels reached 400 mg/dL), animals received ip or oral administration of either saline, insulin (0.75 IU/kg), or peptide (Ric2 or Ric4; 600 µg/kg). In addition, a group of animals received oral administration of either water or Ric2 or Ric4 (600 µg/kg). Glycemia was measured as indicated following vehicle, insulin, or peptide administration.

[1] = system: Erk and Akt phosphorylation in epididymal adipose and tibial muscle tissues; experiment: Erk and Akt phosphorylation in tissues after ip administration to WT mice; type: in vivo, mouse; details: 600 µg/kg ip, tissues collected 30 min after administration
Procedure: Western blotting experiments were performed to evaluate the expression levels of specific proteins. Briefly, cells or tissues as indicated were solubilized by directly adding RIPA buffer (50 mM Tris HCl, 150 mM NaCl, 1.0% v/v, NP-40, 0.5% w/v, sodium deoxycholate, 1.0 mM ethylenediamine tetraacetic acid, EDTA, 0.1% w/v, sodium dodecyl sulphate, SDS, and 0.01% w/v sodium azide, pH of 7.4) containing protease (P8340; Sigma Aldrich, Sao Paulo, Brazil) and phosphatase (P5726, Sigma Aldrich, Sao Paulo, Brazil) inhibitors cocktails, followed by sonication with a micro-tip for 5 s. After 30 min of incubation on ice, samples were centrifuged for 30 min at 12,000× g. Proteins from supernatants (50 µg) were separated by 10% SDS-PAGE and transferred to nitrocellulose membranes for immunoblotting with mouse monoclonal anti-phospho extracellular signal-regulated kinase 1/2 (anti-pErk; Erk 1/2 phosphorylation at Thr202-Tyr204; 1:1000; Cell Signaling, Boston, MA, USA), and rabbit polyclonal anti-total extracellular signal-regulated kinase 1/2 (Erk; anti-total Erk 1/2, 1:1000; Cell Signaling, Boston, MA, USA) antibodies. Blots were also treated with rabbit anti-phospho Akt (S473) (anti-pAkt, 1:1000) and mouse polyclonal anti-total Akt (anti-Akt, 1:1000) (Cell Signaling, Boston, MA, USA) and anti-myogenin (1:1000, Abcam, UK). Protein normalization indicated was performed using rabbit polyclonal anti-glyceraldehyde 3-phosphate dehydrogenase (GAPDH; 1:2000; Proteimax Biotechnology, São Paulo, Brazil) antibodies or anti-β-actin mouse antiserum (1:2000; Sigma Aldrich, Sao Paulo, Brazil). Blots were incubated with horseradish peroxidase-conjugated secondary antibodies for 3 h at room temperature. Western blot bands were visualized with Super-Signal West Pico Chemiluminescent substrate (Thermo Scientific) using the ChemiDoc™ MP Imaging System (BioRad, Hercules, CA, USA), and quantified using ImageJ 1.49 software. All results are expressed as the means ± standard error of the mean (SEM). The statistical comparisons were performed using Student’s t-test or analysis of variance (ANOVA), followed by ad-hoc Tukey’s test (n = 7). Data were statistically analyzed with GraphPad Prism software (GraphPad Software Inc, San Diego, CA, USA).
Figure 5 Western blotting for ERK and AKT in epididymal adipose and tibial muscle tissues following ip administration of Ric4 to WT mice. Mice were treated ip with vehicle (Control) or Ric4 (600 µg/kg). Tissues were collected 30 min after the Ric4 administration and processed for Western blots as detailed in Section 2.5. The phosphorylation of either ERK or AKT in epididymal adipose tissue (A,B) and tibial muscle tissue (C,D) were analyzed using antibodies anti-pErk (A,C) or anti-pAkt (B,D). […]

**Q.** What does the source list for “LASVSTVLTSKYR [Ric4, intracellular peptide derived from hemoglobin alpha subunit, last 13 C-terminal amino acids]”?
**A.** initial enzymatic cleavage site (in vitro): Leu8-Thr9 peptide bond; blood glucose levels in GTT, ip administration (C57BL/6N (WT) mice; peptide 600 µg/kg ip 20 min after glucose): rapidly induced a decrease in blood glucose levels; blood glucose levels in GTT, oral administration (C57BL/6N (WT) mice; peptide 600 µg/kg orally by gavage): decreased blood glucose levels; Akt phosphorylation in epididymal adipose tissue [1]: increased; Akt phosphorylation in tibial skeletal muscle [1]: not Akt phosphorylation; Erk phosphorylation in epididymal adipose tissue [1]: increased; Erk phosphorylation in tibial skeletal muscle [1]: increased
